Laboratory results as given in PMC10222328 (Pharmaceuticals, 2023).

Assays:
[1] = target: T1, 5-LOX (Homo sapiens, UniProt P09917); assay: Fluorometric 5-LOX inhibitor screening kit; format: biochemical; settings: mean ± standard error of two measurements; for inhibition at 10 µM: read-out: 5-LOX Percent of Inhibition
T1 construct: purchased Abcam, UK
T1 sequence (P09917 1-674): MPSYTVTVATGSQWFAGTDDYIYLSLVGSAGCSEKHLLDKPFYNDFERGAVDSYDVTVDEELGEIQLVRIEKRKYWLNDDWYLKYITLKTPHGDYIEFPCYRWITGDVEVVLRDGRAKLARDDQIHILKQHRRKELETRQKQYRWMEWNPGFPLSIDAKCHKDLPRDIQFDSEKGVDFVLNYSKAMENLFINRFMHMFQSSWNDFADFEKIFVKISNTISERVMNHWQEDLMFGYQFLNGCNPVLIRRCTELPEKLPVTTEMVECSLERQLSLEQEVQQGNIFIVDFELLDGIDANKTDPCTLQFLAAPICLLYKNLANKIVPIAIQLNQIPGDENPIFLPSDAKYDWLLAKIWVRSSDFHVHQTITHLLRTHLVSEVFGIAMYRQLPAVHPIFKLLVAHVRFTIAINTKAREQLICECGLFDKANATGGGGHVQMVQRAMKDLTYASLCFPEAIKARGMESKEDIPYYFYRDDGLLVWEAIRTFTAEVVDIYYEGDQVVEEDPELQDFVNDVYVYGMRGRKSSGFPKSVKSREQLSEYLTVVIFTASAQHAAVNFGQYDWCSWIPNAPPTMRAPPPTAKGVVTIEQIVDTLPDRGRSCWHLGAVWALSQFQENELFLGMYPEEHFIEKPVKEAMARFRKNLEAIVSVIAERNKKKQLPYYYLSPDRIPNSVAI
Method: COX-2 and 5-LOX inhibitory activities were tested using fluorometric COX-2 and 5-LOX inhibitor screening kits (Abcam, UK). These assays are based on the fluorometric detection of Prostaglandin G2 (a product generated by the COX enzyme) or on the fluorometric detection of intermediate generated by the 5-LOX enzyme. The experiments were conducted according to the manufacturers’ instructions.
For the determination of COX-2 inhibitory activity, tested compounds were dissolved in DMSO (5 mM stock solutions) and then diluted with the same solvent to obtain test solutions. Test solutions were further diluted 5X with COX assay buffer (2 µL of test solution and 8 µL COX assay buffer). […] Solvent control (SC) was prepared by adding 2 µL DMSO and 8 µL COX assay buffer, while sample (S) and enzyme control (EC) were prepared by adding 10 µL of diluted test solution and COX assay buffer, respectively, into assigned wells. For the determination of 5-LOX inhibitory activity, tested compounds were also dissolved in DMSO to prepare stock solutions with the same concentration (5mM), which were then diluted with the same solvent to obtain test solutions. Subsequently, test solutions were added to corresponding wells (2 µL).

[2] = Acute oral toxicity evaluation in rats; format: in vivo, Wistar albino rats; settings: single oral dose 10 mg/kg, after 14 days, (absolute organ weight × 100%)/body weight
Method: Healthy male rats (n = 24, three rats per group, body weight 180–200 g) were used for conducting an acute oral toxicity study. Animals were divided into the following groups: a control group that included rats that received a single dose of 1% DMSO and experimental groups that involved rats that received compounds 1–7 in the single dose of 10 mg/kg.
After oral administration of the aforementioned agents, rats were kept in single cages and monitored during 14 days. Food and water intake, as well as body weight, were measured daily. All the behavioral changes and any signs of toxicity were monitored daily during 2-week protocol (fur and skin, eyes, salivation, respiration, urination (color), faeces consistency, somatomotor activity, and other alterations in behavior pattern). After accomplishing 14 days, animals were sacrificed and organ weight (liver, kidney, stomach, and heart) was recorded. Relative organ weight was calculated as follows:(absolute organ weight × 100%)/body weight of rat on the day of sacrifice.(1)

[3] = system: carrageenan-induced rat paw edema; assay: Carrageenan-induced rat paw edema model; format: in vivo, Wistar albino rats; settings: for Rat paw thickness: mean ± SD; for inhibition in vivo at 2.5 mg/kg / inhibition in vivo at 5 mg/kg / inhibition in vivo at 10 mg/kg: Rattus norvegicus, po
Method: In vivo assessment of anti-inflammatory activity of compounds 1–7 was conducted in the carrageenan-induced rat paw edema model. Inflammation in all rats was induced by an intraplantar injection of […] of 0.5% carrageenan saline in the left hind paw. Two hundred male Wistar albino rats (180–210 g) were divided into seven experimental (n = 168 rats, 8 rats per subgroup) and two control groups (n = 32 rats, 8 rats per subgroup).
Experimental groups involved rats that received compounds 1–7, and they were divided into three subgroups: rats received compounds 1–7 per os in three doses (2.5 mg/kg, 5 mg/kg, and 10 mg/kg) dissolved in 1% DMSO for 60 min before inducing inflammation.
In order to quantify the anti-inflammatory effect, the thickness of the left paw tissue of each rat was measured at the following time intervals: immediately before inducing inflammation (moment 0) and 1, 2, 3, and 4 h (moments 1, 2, 3, and 4) after inflammation. Tissue thickness was measured in the middle of the rat paw using a digital vernier caliper (Aerospace, Beijing, China).

[4] = 2.5 mg/kg per os, 1 h after carrageenan
[5] = 2.5 mg/kg per os, 2 h after carrageenan
[6] = 2.5 mg/kg per os, 3 h after carrageenan
[7] = 2.5 mg/kg per os, 4 h after carrageenan
[8] = 5.0 mg/kg per os, 1 h after carrageenan
[9] = 5.0 mg/kg per os, 2 h after carrageenan
[10] = 5.0 mg/kg per os, 3 h after carrageenan
[11] = 5.0 mg/kg per os, 4 h after carrageenan
[12] = 10.0 mg/kg per os, 1 h after carrageenan
[13] = 10.0 mg/kg per os, 2 h after carrageenan
[14] = 10.0 mg/kg per os, 3 h after carrageenan
[15] = 10.0 mg/kg per os, 4 h after carrageenan
[16] = 1 h, 2.5 mg/kg per os, 1 h after carrageenan
[17] = 1 h, 5.0 mg/kg per os, 1 h after carrageenan
[18] = 1 h, 10.0 mg/kg per os, 1 h after carrageenan
[19] = 2 h, 2.5 mg/kg per os, 2 h after carrageenan
[20] = 2 h, 5.0 mg/kg per os, 2 h after carrageenan
[21] = 2 h, 10.0 mg/kg per os, 2 h after carrageenan
[22] = 3 h, 2.5 mg/kg per os, 3 h after carrageenan
[23] = 3 h, 5.0 mg/kg per os, 3 h after carrageenan
[24] = 3 h, 10.0 mg/kg per os, 3 h after carrageenan
[25] = 4 h, 2.5 mg/kg per os, 4 h after carrageenan
[26] = 4 h, 5.0 mg/kg per os, 4 h after carrageenan
[27] = 4 h, 10.0 mg/kg per os, 4 h after carrageenan

| SMILES | inhibition at 10 µM [1] [%] | IC50 [1] [µM] | Relative organ weight, heart [2] | Relative organ weight, kidney [2] | Relative organ weight, liver [2] | Relative organ weight, stomach [2] | Rat paw thickness [3, 4] [mm] | Rat paw thickness [3, 5] [mm] | Rat paw thickness [3, 6] [mm] | Rat paw thickness [3, 7] [mm] | Rat paw thickness [3, 8] [mm] | Rat paw thickness [3, 9] [mm] | Rat paw thickness [3, 10] [mm] | Rat paw thickness [3, 11] [mm] | Rat paw thickness [3, 12] [mm] | Rat paw thickness [3, 13] [mm] | Rat paw thickness [3, 14] [mm] | Rat paw thickness [3, 15] [mm] | inhibition in vivo at 2.5 mg/kg [3, 16] [%] | inhibition in vivo at 5 mg/kg [3, 17] [%] | also measured |
| --- | --- | --- | --- | --- | --- | --- | --- | --- | --- | --- | --- | --- | --- | --- | --- | --- | --- | --- | --- | --- | --- |
| COc1cccc(NC(=S)NC(=O)[C@@H](C)c2ccc3cc(OC)ccc3c2)c1 [Compound 4, (S)-2-(6-methoxynaphthalen-2-yl)-N-((3-methoxyphenyl)carbamothioyl)propanamide] | 77.2 ± 0.26 | 0.3 ± 0.12 | 0.30 ± 0.03 | 0.33 ± 0.07 | 2.45 ± 0.15 | 0.50 ± 0.05 | 5.93 ± 0.25 | 5.40 ± 0.10 | 5.17 ± 0.15 | 4.90 ± 0.10 | 6.10 ± 0.44 | 5.97 ± 0.25 | 5.70 ± 0.46 | 5.22 ± 0.50 | 6.00 ± 0.10 | 5.70 ± 0.20 | 5.30 ± 0.17 | 4.90 ± 0.20 | 21.6 | 29.9 | inhibition in vivo at 10 mg/kg [3, 18]: 27.1%; inhibition in vivo at 2.5 mg/kg [3, 19]: 37.2%; inhibition in vivo at 5 mg/kg [3, 20]: 28%; inhibition in vivo at 10 mg/kg [3, 21]: 32.6%; inhibition in vivo at 2.5 mg/kg [3, 22]: 37.9%; inhibition in vivo at 5 mg/kg [3, 23]: 28.8%; inhibition in vivo at 10 mg/kg [3, 24]: 41.5%; inhibition in vivo at 2.5 mg/kg [3, 25]: 40.5%; inhibition in vivo at 5 mg/kg [3, 26]: 43.2%; inhibition in vivo at 10 mg/kg [3, 27]: 54% |
| COc1ccc(NC(=S)NC(=O)[C@@H](C)c2ccc3cc(OC)ccc3c2)cc1 [Compound 2, (S)-2-(6-methoxynaphthalen-2-yl)-N-((4-methoxyphenyl)carbamothioyl)propanamide] | 25.1 ± 1.83 | 39.8 ± 1.98 | 0.33 ± 0.04 | 0.34 ± 0.04 | 3.07 ± 0.38 | 0.57 ± 0.04 | 6.57 ± 1.16 | 6.07 ± 0.72 | 5.77 ± 0.42 | 5.30 ± 0.26 | 7.03 ± 0.47 | 6.40 ± 0.53 | 5.70 ± 0.20 | 5.53 ± 0.29 | 6.5 ± 0.40 | 6.17 ± 0.67 | 5.53 ± 0.15 | 5.33 ± 0.25 | 9.28 | 6.53 | inhibition in vivo at 10 mg/kg [3, 18]: 23%; inhibition in vivo at 2.5 mg/kg [3, 19]: 21.8%; inhibition in vivo at 5 mg/kg [3, 20]: 24.9%; inhibition in vivo at 10 mg/kg [3, 21]: 29.5%; inhibition in vivo at 2.5 mg/kg [3, 22]: 23.3%; inhibition in vivo at 5 mg/kg [3, 23]: 48.9%; inhibition in vivo at 10 mg/kg [3, 24]: 50.7%; inhibition in vivo at 2.5 mg/kg [3, 25]: 35.6%; inhibition in vivo at 5 mg/kg [3, 26]: 47.1%; inhibition in vivo at 10 mg/kg [3, 27]: 51.7% |
| COc1ccc2cc([C@H](C)C(=O)NC(=S)Nc3ccc(F)cc3)ccc2c1 [Compound 1, (S)-N-((4-fluorophenyl)carbamothioyl)-2-(6-methoxynaphthalen-2-yl)propanamide] | 34.2 ± 1.04 | 19.2 ± 0.96 | 0.32 ± 0.02 | 0.31 ± 0.03 | 2.73 ± 0.24 | 0.54 ± 0.05 | 6.50 ± 0.40 | 6.50 ± 0.40 | 6.20 ± 0.30 | 5.53 ± 0.29 | 7.00 ± 0.10 | 6.50 ± 0.17 | 5.8 ± 0.20 | 5.27 ± 0.29 | 7.03 ± 0.12 | 6.60 ± 0.10 | 6.10 ± 0.17 | 5.27 ± 0.50 | 20.3 | -7.22 | inhibition in vivo at 10 mg/kg [3, 18]: -5.84%; inhibition in vivo at 2.5 mg/kg [3, 19]: 11.1%; inhibition in vivo at 5 mg/kg [3, 20]: 3.45%; inhibition in vivo at 10 mg/kg [3, 21]: 1.92%; inhibition in vivo at 2.5 mg/kg [3, 22]: 10.5%; inhibition in vivo at 5 mg/kg [3, 23]: 23.3%; inhibition in vivo at 10 mg/kg [3, 24]: 10.5%; inhibition in vivo at 2.5 mg/kg [3, 25]: 33.3%; inhibition in vivo at 5 mg/kg [3, 26]: 40.2%; inhibition in vivo at 10 mg/kg [3, 27]: 44.8% |
